# According to US8445674B2, “Heterocyclyl compounds” (Hoffmann-La Roche Inc, priority 2009, dated 2013):
# Target: T1, human chemokine receptor 2 isoform B (Homo sapiens, UniProt P41597)
# T1 construct: host or cells: CHOK1-CCR2B-A5 cells (CHO-K1)
# T1 sequence (P41597 1-360 isoform P41597-2): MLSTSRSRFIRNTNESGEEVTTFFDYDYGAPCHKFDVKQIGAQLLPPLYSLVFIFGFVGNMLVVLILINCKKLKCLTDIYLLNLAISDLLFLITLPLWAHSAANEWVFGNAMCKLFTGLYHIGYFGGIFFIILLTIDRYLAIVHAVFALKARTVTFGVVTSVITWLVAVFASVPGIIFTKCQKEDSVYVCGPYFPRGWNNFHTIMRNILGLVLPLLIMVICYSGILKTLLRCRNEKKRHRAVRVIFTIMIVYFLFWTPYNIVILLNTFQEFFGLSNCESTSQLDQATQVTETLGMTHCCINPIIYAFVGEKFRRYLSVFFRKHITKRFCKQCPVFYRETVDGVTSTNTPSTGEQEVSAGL
# Test: Calcium mobilization assay (FLIPR, antagonist activity against MCP-1)
# Type: cell-based
# Conditions: Ca mobilisation assay, CHOK1-CCR2B-A5 cells, inhibition of calcium increase induced by 20 nM MCP-1
# Method in brief: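 CHOK1 cells stably overexpressing human CCR2B, loaded with 4 μM Fluo-4 for 2 h at 30° C, compounds added and agonist signal read by FLIPR for 80 s. After 20-30 min at 30° C, 20 nM MCP-1 was added and fluorescence read again. IC50 is 50% inhibition of specific calcium increase (max minus basal).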
row,IC50 [nM],Structure (SMILES)
1,2570,"C[C@H]1C(=O)N([C@H](CO)CCC(=O)N2CCC3(CC3)[C@H](O)C2)CCN1C(=O)N(C)c1ccc(OC(F)(F)F)c(Cl)c1 [Example 57, (S)-4-[(S)-4-((S)-4-Hydroxy-6-aza-spiro[2.5]oct-6-yl)-1-hydroxymethyl-4-oxo-butyl]-2-methyl-3-oxo-piperazine-1-carboxylic acid (3-chloro-4-trifluoromethoxy-phenyl)-methyl-amide]"
2,23.2,"C[C@H]1C(=O)N(CCCC(=O)N2CCC3(CC3)[C@H](O)C2)CCN1c1ccc(Cl)c(Cl)c1 [Example 59, (S)-4-(3,4-dichloro-phenyl)-1-[4-((S)-4-hydroxy-6-aza-spiro[2.5]oct-6-yl)-4-oxo-butyl]-3-methyl-piperazin-2-one]"
3,5,"C[C@H]1C(=O)N(CCCC(=O)N2CCC3(CC3)[C@H](O)C2)CCN1c1ccc(C(F)(F)F)c(Cl)c1 [Example 60, (S)-4-(3-chloro-4-trifluoromethyl-phenyl)-1-[4-((S)-4-hydroxy-6-aza-spiro[2.5]oct-6-yl)-4-oxo-butyl]-3-methyl-piperazin-2-one]"
4,41.7,"C[C@H]1C(=O)N(CCCC(=O)N2CCC3(CC3)[C@H](O)C2)CCN1c1ccc(Cl)c(OC(F)(F)F)c1 [Example 62, (S)-4-(4-chloro-3-trifluoromethoxy-phenyl)-1-[4-((S)-4-hydroxy-6-aza-spiro[2.5]oct-6-yl)-4-oxo-butyl]-3-methyl-piperazin-2-one]"
5,1240,"C[C@H]1C(=O)N(CCC(=O)N2CCC3(CC3)[C@H](O)C2)CCN1C(=O)/C=C/c1ccc(F)c(Cl)c1 [Example 64, (S)-4-[(E)-3-(3-Chloro-4-fluoro-phenyl)-acryloyl]-1-[3-((S)-4-hydroxy-6-aza-spiro[2.5]oct-6-yl)-3-oxo-propyl]-3-methyl-piperazin-2-one]"
6,610,"C[C@@H]1CN(CCCC(=O)N2CCC3(CC3)[C@H](O)C2)C(=O)C=CN1c1ccc(C(F)(F)F)c(Cl)c1 [Example 65, (R)-1-(3-Chloro-4-trifluoromethyl-phenyl)-4-[4-((S)-4-hydroxy-6-aza-spiro[2.5]oct-6-yl)-4-oxo-butyl]-2-methyl-1,2,3,4-tetrahydro-[1,4]diazepin-5-one]"
7,109,"C[C@@H]1CN(CCCC(=O)N2CCC3(CC3)[C@H](O)C2)C(=O)CCN1c1ccc(C(F)(F)F)c(Cl)c1 [Example 66, (R)-1-(3-Chloro-4-trifluoromethyl-phenyl)-4-[4-((S)-4-hydroxy-6-aza-spiro[2.5]oct-6-yl)-4-oxo-butyl]-2-methyl-[1,4]diazepan-5-one]"
8,481,"O=C(/C=C/c1ccc(Cl)c(Cl)c1)N1CCC(=O)N(CCC(=O)N2CCC(CO)CC2)CC1 [Example 69, 1-[(E)-3-(3,4-Dichloro-phenyl)-acryloyl]-4-[3-(4-hydroxymethyl-piperidin-1-yl)-3-oxo-propyl]-[1,4]diazepan-5-one]"
9,162,"O=C(/C=C/c1ccc(Cl)c(Cl)c1)N1CCC(=O)N(CCC(=O)N2CCC(O)(c3ccccc3)CC2)CC1 [Example 72, 1-[(E)-3-(3,4-Dichloro-phenyl)-acryloyl]-4-[3-(4-hydroxy-4-phenyl-piperidin-1-yl)-3-oxo-propyl)-[1,4]diazepan-5-one]"
10,65.9,"CC1(O)CCN(C(=O)CCN2CCN(C(=O)/C=C/c3ccc(Cl)c(Cl)c3)CCC2=O)CC1 [Example 73, 1-[(E)-3-(3,4-Dichloro-phenyl)-acryloyl]-4-[3-(4-hydroxy-4-methyl-piperidin-1-yl)-3-oxo-propyl]-[1,4]diazepan-5-one]"
11,971,"O=C(/C=C/c1ccc(Cl)c(Cl)c1)N1CCC(=O)N(CCC(=O)N2CCC(O)(c3ccccn3)CC2)CC1 [Example 76, 1-[(E)-3-(3,4-Dichloro-phenyl)-acryloyl]-4-[3-(4'-hydroxy-3′,4′,5′,6′-tetrahydro-2′H-[2,4′]bipyridinyl-1′-yl)-3-oxo-propyl]-[1,4]diazepan-5-one]"
12,129,"O=C(/C=C/c1ccc(Cl)c(Cl)c1)N1CCC(=O)N(CCC(=O)N2CCC(O)(c3cccnc3)CC2)CC1 [Example 77, 1-[(E)-3-(3,4-Dichloro-phenyl)-acryloyl]-4-[3-(4′-hydroxy-3′,4′,5′,6′-tetrohydro-2′H-[3,4′]bipyridinyl-1′-yl)-3-oxo-propyl]-[1,4]diazepan-5-one]"
13,51.2,"O=C(/C=C/c1ccc(Cl)c(Cl)c1)N1CCC(=O)N(CCC(=O)N2CCC(O)(c3ccncc3)CC2)CC1 [Example 78, 1-[(E)-3-(3,4-Dichloro-phenyl)-acryloyl]-4-[3-(4-hydroxy-3,4,5,6-tetrahydro-2H-[4,4′]bipyridinyl-1-yl)-3-oxo-propyl)-[1,4]diazepan-5-one]"
14,1820,"O=C1CCCN(C(=O)CCN2CCN(C(=O)/C=C/c3ccc(Cl)c(Cl)c3)CCC2=O)C1 [Example 79, 1-[(E)-3-(3,4-Dichloro-phenyl)-acryloyl]-4-[3-oxo-3-(3-oxo-piperidin-1-yl)-propyl]-[1,4]diazepan-5-one]"
15,3250,"CN1CCN(C(=O)CCN2CCN(C(=O)/C=C/c3ccc(Cl)c(Cl)c3)CCC2=O)CC1=O [Example 80, 1-[(E)-3-(3,4-Dichloro-phenyl)-acryloyl]-4-[3-(4-methyl-3-oxo-piperazin-1-yl)-3-oxo-propyl]-[1,4]diazepan-5-one]"
16,1830,"O=C(/C=C/c1ccc(Cl)c(Cl)c1)N1CCC(=O)N(CCC(=O)N2CCCCC2)CC1 [Example 82, 1-[(E)-3-(3,4-Dichloro-phenyl)-acryloyl]-4-(3-oxo-3-piperidin-l-yl-propyl)-[1,4]diazepan-5-one]"
17,307,"O=C(/C=C/c1ccc(Cl)c(Cl)c1)N1CCC(=O)N(CCC(=O)N2CCC3(CCCC3)CC2)CC1 [Example 83, 4-[3-(8-Aza-spiro[4.5]dec-8-yl)-3-oxo-propyl]-1-[(E)-3-(3,4-dichloro-phenyl)-acryloyl]-[1,4]diazepan-5-one]"
18,47.9,"CC(C)(C)C1(O)CCN(C(=O)CCN2CCN(C(=O)/C=C/c3ccc(Cl)c(Cl)c3)CCC2=O)CC1 [Example 84, 4-[3-(4-tert-Butyl-4-hydroxy-piperidin-1-yl)-3-oxo-propyl]-1-[(E)-3-(3,4-dichloro-phenyl)-acryloyl]-[1,4]diazepan-5-one]"
19,1520,"CC1CCN(C(=O)CCN2CCN(C(=O)/C=C/c3ccc(Cl)c(Cl)c3)CCC2=O)CC1 [Example 85, 1-[(E)-3-(3,4-Dichloro-phenyl)-acryloyl]-4-[3-(4-methyl-piperidin-1-yl)-3-oxo-propyl]-[1,4]diazepan-5-one]"
20,326,"O=C(/C=C/c1ccc(Cl)c(Cl)c1)N1CCC(=O)N(CCC(=O)N2CCC3(CCCO3)CC2)CC1 [Example 86, 1-[(E)-3-(3,4-Dichloro-phenyl)-acryloyl]-4-[3-(1-oxa-8-aza-spiro[4.5]dec-8-yl)-3-oxo-propyl]-[1,4]diazepan-5-one]"
21,337,"CC1(CO)CCN(C(=O)CCN2CCN(C(=O)/C=C/c3ccc(Cl)c(Cl)c3)CCC2=O)CC1 [Example 87, 1-[(E)-3-(3,4-Dichloro-phenyl)-acryloyl]-4-[3-(4-hydroxymethyl-4-methyl-piperidin-1-yl)-3-oxo-propyl]-[1,4]diazepan-5-one]"
22,1750,"COC(=O)NC1CCN(C(=O)CCN2CCN(C(=O)/C=C/c3ccc(Cl)c(Cl)c3)CCC2=O)CC1 [Example 88, [1-(3-{4-[(E)-3-(3,4-Dichloro-phenyl)-acryloyl]-7-oxo-[1,4]diazepan-1-yl}-propionyl)-piperidin-4-yl]-carbamic acid methyl ester]"
23,4000,"O=C1NC(=O)C2(CCN(C(=O)CCN3CCN(C(=O)/C=C/c4ccc(Cl)c(Cl)c4)CCC3=O)CC2)N1 [Example 89, 8-(3-{4-[(E)-3-(3,4-Dichloro-phenyl)-acryloyl]-7-oxo-[1,4]diazepan-1-yl}-propionyl)-1,3,8-triaza-spiro[4.5]decane-2,4-dione]"
24,184,"O=C1NCC2(CCN(C(=O)CCN3CCN(C(=O)/C=C/c4ccc(Cl)c(Cl)c4)CCC3=O)CC2)O1 [Example 90, 8-(3-{4-[(E)-3-(3,4-Dichloro-phenyl)-acryloyl]-7-oxo-[1,4]diazepan-1-yl}-propionyl)-1-oxa-3,8-diaza-spiro[4.5]decan-2-one]"
25,146,"O=C(/C=C/c1ccc(Cl)c(Cl)c1)N1CCC(=O)N(CCC(=O)N2CCC(c3cc[nH]n3)CC2)CC1 [Example 91, 1-[(E)-3-(3,4-Dichloro-phenyl)-acryloyl]-4-{3-oxo-3-[4-(1H-pyrazol-3-yl)-piperidin-1-yl]-propyl}-[1,4]diazepan-5-one]"
26,952,"O=C(/C=C/c1ccc(Cl)c(Cl)c1)N1CCC(=O)N(CCC(=O)N2CCC(N3CCNC3=O)CC2)CC1 [Example 92, 1-[(E)-3-(3,4-Dichloro-phenyl)-acryloyl]-4-{3-oxo-3-[4-(2-oxo-imidazolidin-1-yl)-piperidin-1-yl]-propyl}-[1,4]diazepan-5-one]"
27,1160,"O=C1CC2(CCN(C(=O)CCN3CCN(C(=O)/C=C/c4ccc(Cl)c(Cl)c4)CCC3=O)CC2)C(=O)N1 [Example 93, 8-(3-{4-[(E)-3-(3,4-Dichloro-phenyl)-acryloyl]-7-oxo-[1,4]diazepan-1-yl}-propionyl)-2,8-diaza-spiro[4.5]decane-1,3-dione]"
28,1800,"NC(=O)C1CCN(C(=O)CCN2CCN(C(=O)/C=C/c3ccc(Cl)c(Cl)c3)CCC2=O)CC1 [Example 94, 1-(3-{4-[(E)-3-(3,4-Dichloro-phenyl)-acryloyl]-7-oxo-[1,4]diazepan-1-yl}-propionyl)-piperidine-4-carboxylic acid amide]"
